Results on one molecule are retold here after US20140243332A1, “METHODS OF TREATING CANCERS CHARACTERIZED BY ABERRENT ROS1 ACTIVITY” (Oregon Health & Science University, priority 2013, published 2014).

One assay has as its system HCC78 cells. The experiment in a line: Cell viability (MTS) assay, HCC78. It is filed as cell-based, human. As to conditions: Homo sapiens, 72 hour exposure, read-out: IC50 HCC78 cell growth. How it is done: (§1) The parental Ba/F3 cell line was cultured in RPMI 1640 medium with 10% FBS, L-glutamine, penicillin/streptomycin and 15% WEHI-conditioned media. Ba/F3 cell lines were maintained at densities of 0.5×10^6 to 1.5×10^6 per ml of media. FIG-ROS and SLC-ROS Ba/F3 lines were created by infecting the parental Ba/F3 with retrovirus expressing either human FIG-ROS-S (indicated FIG-ROS herein) or SLC-ROS-S (indicated SLC-ROS herein). Stable transfectant lines were sorted for GFP expression on a FACS Aria® flow cytometer. Cells were counted daily using Guava ViaCount® reagent and Guava Personal Cell Analysis® flow cytometer. […] Early passage NIH3T3 cells were infected with retrovirus expressing either FIG-ROS or SLC-ROS and sorted for GFP expression as described above for Ba/F3 cells. HCC78 cells were cultured in RPMI 1640 medium with 10% FBS, L-glutamine, and penicillin/streptomycin. This media is referred to as RPMI-10% FBS herein.

The target of assay [1] is T1, FIG-ROS (Homo sapiens, UniProt P08922). The experiment in a line: Immunoblot of NIH3T3 FIG-ROS lysates. As to conditions: NIH3T3 FIG-ROS cells, 1 hour, at lower doses than crizotinib. In kind it is cell-based. The arrangement: expressed in transfected cells; host or cells: Ba/F3 (A14) and NIH3T3 (A24), retroviral pMSCV-IRES-GFP; the other entry of the earlier key: GOPC (Q9HD26, Golgi-associated PDZ and coiled-coil motif-containing protein). How it is done:
as §1

Assay [2] concerns SLC-ROS and ERK1/2 phosphorylation. The experiment in a line: Immunoblot of HCC78 lysates. In kind it is cell-based, human. Particulars: HCC78 cells, immunoblot FIG. 1E. As to the method:
FIG. 1E is an image of an immunoblot of lysates of HCC78 cells probing for phosphorylated and total SLC-ROS1 and ERK1/2, and phosphorylated protein S6 after treatment with the indicated concentration of the indicated inhibitor. The images are representative of two independent experiments.
(§2) Ba/F3 FIG-ROS, Ba/F3 SLC-ROS, HCC78 and mCC cell lines were treated with the indicated concentration of inhibitors for 1-2 hours. […] The protein content of the cell lysates was determined and lysates were either used for immunoprecipitation where indicated or extracted with SDS Sample buffer for 15 minutes at 80° C. Proteins were transferred to Immobilon-FL membranes and immunoblotted with antibodies specific for phospho-ROS1 (Cell Signaling Technology (CST) #3078), total ROS1 (CST #3266), phopsho-Shp2 (CST #3751), total Shpt (CST #3752), phospho-Stat3 (CST #9145), total Stat3 (CST #4904), phospho-Erk1/2 (CST #9101), total Erk2 (Santa Cruz #SC-1647), phospho-S6 (CST #4858), total S6 (CST #2216), phospho-Src (CST #2105), total Src (CST #2110), α-tubulin (Sigma T6199), or β-actin (Sigma A1978) as indicated. Images of the blots were generated by the LI-COR Odyssey® imaging system, following the manufacturer's protocol for immunoblot detection with use of IR-dye conjugated secondary antibodies.
In general terms: In western blotting, separated proteins are transferred to a membrane and probed.

The subject of a further assay is PC9 cells. The assay can be described thus: Cell viability assay, PC9. In kind it is cell-based, human. Particulars: PC9 cells (activated EGFR), FIG. 6B. As to the method:
IC50 was determined from non-linear regression curve fit analysis of the dose response curves.

For assay [3], the system named is FIG-ROS and ROS-1 effector pathway phosphorylation. The experiment in a line: Immunoblot of FIG-ROS tumor lysates after oral gavage. In kind it is in vivo, mice. As to conditions: 25 mg/kg oral gavage. As to the method: FIG. 3D is an image of an immunoblot of tumor lysates probed for phosphorylated and total ROS1, phosphorylated and total Shpt, phosphorylated and total Stat3, phosphorylated and total Src as well as tubulin as a loading control.
as §2
Concomitant with diminished FIG-ROS activation, phosphorylation of Shpt and Stat3, but not Src is inhibited in the treated tumors.

The target in assay [4] is T1, FIG-ROS. The experiment in a line: Immunoblot of Ba/F3 FIG-ROS lysates. As to conditions: Ba/F3 FIG-ROS cells, increasing amounts, immunoblot FIG. 1C. In kind it is cell-based. Further details: expressed in transfected cells; host or cells: Ba/F3 (A14), retroviral pMSCV-IRES-GFP; the other entry of the earlier key: GOPC (Q9HD26, Golgi-associated PDZ and coiled-coil motif-containing protein). How it is done: FIG. 1C is an image of an immunoblot of lysates of Ba/F3 FIG-ROS and Ba/F3 SLC-ROS and the indicated downstream effectors after treatment with the indicated compounds. Images shown are representative of three independent experiments.
as §2

Assay [5] concerns the target Ba/F3 FIG-ROS E1935G cells (Homo sapiens, UniProt P08922, E1935G, cells depend on it). The experiment in a line: Cell viability assay, Ba/F3 FIG-ROS E1935G. It is filed as cell-based. As to conditions: Table 3, Ba/F3 FIG-ROS E1935G; nM; read-out: IC50 (the source's name). As to the method:
Cell lines were distributed in 96-well plates and incubated with the indicated concentrations of inhibitor for 72 hours. […] Ba/F3 cell lines were plated at 4×10^3 cells/well. HCC78 and mCC cell lines were plated at 1.5×10^3 cells/well. All cell types were seeded in a final volume of 80 microliters. A 20 microliter volume of five-fold concentrated inhibitor media was added. Cell proliferation was measured using a […] viability assay (CellTiter96 Aqueous One® Solution; Promega). A BioTek Synergy 2® plate reader was used to read the absorbance at 490 nm at 30 minutes and 1 hour after addition of MTS. To facilitate comparison between experiments, the raw MTS absorbance of vehicle (0.1% DMSO) treated cells was set to 1 and absorbance from inhibitor treated wells was normalized to the vehicle treated value. […] Data were normalized using Microsoft Excel® and further non-linear regression curve fit analysis of the normalized data for determination of IC50 was performed using Graphpad Prism® software.
The FIG-ROS-S fusion gene was synthesized using the GeneArt® service. FIG-ROS-S is denoted as FIG-ROS herein.

Consider `COc1cc2c(Oc3ccc(NC(=O)C4(C(=O)Nc5ccc(F)cc5)CC4)cc3F)ccnc2cc1OCCCN1CCOCC1` [foretinib, N1′-[3-fluoro-4-[[6-methoxy-7-(3-morpholinopropoxy)-4-quinolyl]oxy]phenyl]-N1-(4-fluorophenyl)cyclopropane-1,1-dicarboxamide], for which, in the assay on HCC78 cells, the IC50 turned out to be 0.425 µM. The FIG-ROS phosphorylation entry at FIG-ROS [1] was “strongly suppressed”. In assay [2], the “inhibition of SLC-ROS and ERK1/2 phosphorylation” value is on record as “at a lower concentration than did crizotinib”. Also, the “sensitivity of cell growth” value with PC9 cells was “relatively insensitive”. Also, in assay [3] (FIG-ROS tumors), the “intra-tumoral phosphorylation of Shpt and Stat3” value is “is inhibited”; the “intra-tumoral phosphorylation of Src” value is listed as “but not Src”. In addition, the “intra-tumoral FIG-ROS phosphorylation” value in assay [3] (tumors harvested at 1, 2, 4 and 8 hours) is “Rapid and robust inhibition”. Moreover, on FIG-ROS [4], the “autophosphorylation of FIG-ROS and ROS1-driven signaling (phospho-Shp2, phospho-ERK1/2)” value was “dose dependent decrease”. Further, the GI50 in assay [5] was determined as 6.6 nM.

The term IC50 denotes the concentration that inhibits the measured activity by half.
